In PubChem BioAssay (NCI):
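These data come from cells grown in 96-well plates and exposed to compound for 48 hours at five concentrations. TGI: concentration producing complete growth inhibition.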

Experiments:
Test in all cases: NCI tumour cell line growth inhibition, 48 h
[1] = system: SK-MEL-2 melanoma
[2] = system: HCT-15 colon
[3] = system: MCF7 breast
[4] = system: SF-539 CNS
[5] = system: EKVX NSCLC
[6] = system: SR leukemia
[7] = system: K-562 leukemia
[8] = system: MOLT-4 leukemia
[9] = system: DU-145 prostate
[10] = system: TK-10 renal
[11] = system: MALME-3M melanoma
[12] = system: HL-60(TB) leukemia
[13] = system: UACC-257 melanoma
[14] = system: SF-295 CNS
[15] = system: MDA-MB-435
[16] = system: ACHN renal
[17] = system: HS 578T breast
[18] = system: BT-549 breast
[19] = system: PC-3 prostate
[20] = system: NCI/ADR-RES ovarian
[21] = system: OVCAR-3 ovarian
[22] = system: OVCAR-4 ovarian
[23] = system: OVCAR-8 ovarian
[24] = system: KM12 colon
[25] = system: MDA-N
[26] = system: 786-0 renal
[27] = system: HOP-92 NSCLC
[28] = system: UO-31 renal
[29] = system: SNB-75 CNS
[30] = system: SNB-19 CNS
[31] = system: HCC-2998 colon
[32] = system: LOX IMVI melanoma
[33] = system: NCI-H522 lung
[34] = system: UACC-62 melanoma
[35] = system: HCT-116 colon
[36] = system: NCI-H460 lung
[37] = system: M14 melanoma
[38] = system: A549 NSCLC
[39] = system: NCI-H226 lung
[40] = system: CCRF-CEM leukemia
[41] = system: NCI-H23 lung
[42] = system: HT29 colon
[43] = system: U251 CNS
[44] = system: SK-OV-3 ovarian
[45] = system: SK-MEL-5 melanoma
[46] = system: COLO 205 colon
[47] = system: HOP-62 NSCLC
[48] = system: A498 renal
[49] = system: MDA-MB-231 breast
[50] = system: RXF 393 renal
[51] = system: T-47D breast
[52] = system: RPMI-8226 leukemia
[53] = system: SN12C renal
[54] = system: SF-268 CNS
[55] = system: SK-MEL-28 melanoma
[56] = system: IGROV1 ovarian
[57] = system: SW-620 colon
[58] = system: CAKI-1 renal
[59] = system: OVCAR-5 ovarian
[60] = system: DMS 273 small cell lung
[61] = system: SNB-78 CNS
[62] = system: M19-MEL melanoma

**Q.** What does the source list for `O=c1[nH]nc(-c2ccccc2)n1/N=C/c1ccccc1Cl`?
**A.** TGI [1]: 46.3 µM; TGI [2]: > 100 µM; TGI [3]: > 100 µM; TGI [4]: > 100 µM; TGI [5]: > 100 µM; TGI [6]: 85.6 µM; TGI [7]: > 100 µM; TGI [8]: 56.5 µM; TGI [9]: > 100 µM; TGI [10]: > 100 µM; TGI [11]: 86.4 µM; TGI [12]: 48 µM; TGI [13]: > 100 µM; TGI [14]: > 100 µM; TGI [15]: 60.2 µM; TGI [16]: > 100 µM; TGI [17]: > 100 µM; TGI [18]: > 100 µM; TGI [19]: 57.6 µM; TGI [20]: 67.9 µM; TGI [21]: 57.9 µM; TGI [22]: > 100 µM; TGI [23]: > 100 µM; TGI [24]: 32.6 µM; TGI [25]: > 100 µM; TGI [26]: > 100 µM; TGI [27]: > 100 µM; TGI [28]: > 100 µM; TGI [29]: > 100 µM; TGI [30]: > 100 µM; TGI [31]: > 100 µM; TGI [32]: > 100 µM; TGI [33]: 43.9 µM; TGI [34]: 46.5 µM; TGI [35]: > 100 µM; TGI [36]: 32.2 µM; TGI [37]: > 100 µM; TGI [38]: > 100 µM; TGI [39]: > 100 µM; TGI [40]: > 100 µM; TGI [41]: 87.7 µM; TGI [42]: > 100 µM; TGI [43]: > 100 µM; TGI [44]: > 100 µM; TGI [45]: 36.1 µM; TGI [46]: > 100 µM; TGI [47]: > 100 µM; TGI [48]: > 100 µM; TGI [49]: > 100 µM; TGI [50]: 67.4 µM; TGI [51]: > 100 µM; TGI [52]: 94.4 µM; TGI [53]: > 100 µM; TGI [54]: > 100 µM; TGI [55]: > 100 µM; TGI [56]: > 100 µM; TGI [57]: > 100 µM; TGI [58]: > 100 µM; TGI [59]: > 100 µM

**Q.** Which results are given for `CC1(C(=O)Nc2ccc3ccccc3c2)CC2(C)CC(C)(C1)C(O)NC2=O` (configuration not stated)?
**A.** TGI [5]: > 100 µM; TGI [6]: > 100 µM; TGI [8]: > 100 µM; TGI [10]: > 100 µM; TGI [12]: > 100 µM; TGI [60]: > 100 µM; TGI [13]: > 100 µM; TGI [14]: > 100 µM; TGI [16]: > 100 µM; TGI [23]: > 100 µM; TGI [24]: > 100 µM; TGI [27]: > 100 µM; TGI [28]: > 100 µM; TGI [30]: > 100 µM; TGI [33]: > 100 µM; TGI [34]: > 100 µM; TGI [36]: > 100 µM; TGI [37]: > 100 µM; TGI [38]: > 100 µM; TGI [61]: > 100 µM; TGI [40]: > 100 µM; TGI [41]: > 100 µM; TGI [42]: > 100 µM; TGI [62]: > 100 µM; TGI [43]: > 100 µM; TGI [44]: > 100 µM; TGI [47]: > 100 µM; TGI [48]: > 100 µM; TGI [50]: > 100 µM; TGI [54]: > 100 µM; TGI [55]: > 100 µM; TGI [56]: > 100 µM; TGI [59]: > 100 µM
